In US11932609B1 (priority 2023, dated 2024):

Test system: multidrug-resistant (MDR) strains of Mycobacterium tuberculosis
Assay type: cell-based
Conditions: MDR-TB, drug resistance at least to isoniazid and rifampicin; REMA, Middlebrook 7H9 broth, 8 days at 37° C. plus overnight with resazurin

## CCOC(=O)C1=C(C)NC(Nc2ccc(Br)cc2C#N)=NC1c1ccc(F)cc1 (centres unmarked) [DHPM-KNV6, Ethyl 2-((4-bromo-2-cyanophenyl)amino)-4-(4-fluorophenyl)-6-methyl-1,4-dihydropyrimidine-5-carboxylate]
  Anti-tubercular activity against Mycobacterium tuberculosis MDR (MIC): No activity

## CCOC(=O)C1=C(C)NC(Nc2ccccc2I)=NC1c1ccc(F)cc1 (centres unmarked) [DHPM-KNV8, Ethyl 4-(4-fluorophenyl)-2-((2-iodophenyl)amino)-6-methyl-1,4-dihydropyrimidine-5-carboxylate]
  Anti-tubercular activity against Mycobacterium tuberculosis MDR (MIC): No activity
